According to publication PMC12298351, “Novel 3,19-(N-Phenyl-3-(4-fluorophenyl)-pyrazole) Acetal of Andrographolide Promotes Cell Cycle Arrest and Apoptosis in MDA-MB-231 Breast Cancer Cells” (Pharmaceuticals, 2025):

Experiments:
HT29 = settings: HT29, Colon; for CC50: read-out: 50% lethal concentration (LC50)
MALME-3M = settings: Melanoma
SK-MEL-2 = settings: SK-MEL-2, Melanoma
SR = settings: for GI50 / Total growth inhibition (TGI): Leukemia; for CC50: read-out: 50% lethal concentration (LC50), Leukemia
MDA-MB-231 = settings: for GI50: MDA-MB-231, Breast; for Total growth inhibition (TGI) / CC50: MDA-MB-231/ATCC, Breast; for CC50: read-out: 50% lethal concentration (LC50)
M14 = assay type: cell-based; settings: M14, Melanoma
U251 = settings: U251, CNS
CAKI-1 = settings: CAKI-1, Renal; for CC50: read-out: 50% lethal concentration (LC50)
EKVX = settings: for Total growth inhibition (TGI): Non-Small Cell Lung; for GI50: Non-Small-Cell Lung; for CC50: read-out: 50% lethal concentration (LC50), Non-Small Cell Lung
MCF7 = settings: MCF7, Breast; for CC50: read-out: 50% lethal concentration (LC50)
SW-620 = settings: SW-620, Colon; for CC50: read-out: 50% lethal concentration (LC50)
A498 = settings: A498, Renal; for CC50: read-out: 50% lethal concentration (LC50)
SF-539 = settings: SF-539, CNS; for CC50: read-out: 50% lethal concentration (LC50)
KM12 = settings: KM12, Colon
NCI-H460 = settings: for Total growth inhibition (TGI) / CC50: NCI-H460, Non-Small Cell Lung; for GI50: NCI-H460, Non-Small-Cell Lung; for CC50: read-out: 50% lethal concentration (LC50)
OVCAR-8 = settings: OVCAR-8, Ovarian; for CC50: read-out: 50% lethal concentration (LC50)
LOX IMVI = settings: for GI50 / Total growth inhibition (TGI): Melanoma; for CC50: read-out: 50% lethal concentration (LC50), Melanoma
NCI-H226 = settings: for Total growth inhibition (TGI) / CC50: NCI-H226, Non-Small Cell Lung; for GI50: NCI-H226, Non-Small-Cell Lung; for CC50: read-out: 50% lethal concentration (LC50)
A549/ATCC = settings: for Total growth inhibition (TGI): Non-Small Cell Lung; for GI50: Non-Small-Cell Lung; for CC50: read-out: 50% lethal concentration (LC50), Non-Small Cell Lung
OVCAR-3 = settings: OVCAR-3, Ovarian; for CC50: read-out: 50% lethal concentration (LC50)
[1] = DPPH radical scavenging assay; settings: 25 µM test compound, 0.1 mM DPPH, acetonitrile, 30 min
Summary of the method: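 Compounds at 25 µM in acetonitrile mixed 1:2 with 0.1 mM DPPH in acetonitrile, kept 30 min in the dark at room temperature. Absorbance read at 517 nm; % scavenging = (Ac − As)/Ac × 100, Ac being DPPH blank. Ascorbic acid positive control.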

HOP-62 = settings: for Total growth inhibition (TGI) / CC50: HOP-62, Non-Small Cell Lung; for GI50: HOP-62, Non-Small-Cell Lung; for CC50: read-out: 50% lethal concentration (LC50)
MDA-MB-468 = settings: MDA-MB-468, Breast; for CC50: read-out: 50% lethal concentration (LC50)
RXF 393 = settings: RXF 393, Renal; for CC50: read-out: 50% lethal concentration (LC50)
HS 578T = settings: for GI50 / Total growth inhibition (TGI): Breast; for CC50: read-out: 50% lethal concentration (LC50), Breast
SN12C = settings: for GI50 / Total growth inhibition (TGI): Renal; for CC50: read-out: 50% lethal concentration (LC50), Renal
SK-MEL-28 = settings: SK-MEL-28, Melanoma; for CC50: read-out: 50% lethal concentration (LC50)
NCI/ADR-RES = settings: for GI50 / Total growth inhibition (TGI): Ovarian; for CC50: read-out: 50% lethal concentration (LC50), Ovarian

C=C1CCC2C3(C)COC(c4cn(-c5ccccc5)nc4-c4ccc(OC)cc4)OC3CCC2(C)C1CC=C1C(=O)OCC1O (stereo not shown) [1j]
GI50 (HT29): 1700 nM | Total growth inhibition (TGI) (HT29): 3.38 µM | CC50 (HT29): 6.73 µM | GI50 (MALME-3M): 1540 nM | Total growth inhibition (TGI) (MALME-3M): 2.93 µM | GI50 (SK-MEL-2): 1570 nM | Total growth inhibition (TGI) (SK-MEL-2): 3.08 µM | GI50 (SR): 1740 nM | Total growth inhibition (TGI) (SR): 5.21 µM | CC50 (SR): > 100 µM | GI50 (MDA-MB-231): 1470 nM | Total growth inhibition (TGI) (MDA-MB-231): 2.98 µM | CC50 (MDA-MB-231): 60.1 µM | GI50 (M14): 1720 nM | Total growth inhibition (TGI) (M14): 3.54 µM | GI50 (U251): 1660 nM | Total growth inhibition (TGI) (U251): 3.1 µM | GI50 (CAKI-1): 1260 nM | Total growth inhibition (TGI) (CAKI-1): 2.64 µM | CC50 (CAKI-1): 5.54 µM | Total growth inhibition (TGI) (EKVX): 4.49 µM | GI50 (EKVX): 1960 nM | CC50 (EKVX): > 100 µM | GI50 (MCF7): 1460 nM | Total growth inhibition (TGI) (MCF7): > 100 µM | CC50 (MCF7): > 100 µM | GI50 (SW-620): 1690 nM | Total growth inhibition (TGI) (SW-620): 3.8 µM | CC50 (SW-620): 8.55 µM | GI50 (A498): 2630 nM | Total growth inhibition (TGI) (A498): 11.3 µM | CC50 (A498): 39.2 µM | GI50 (SF-539): 1690 nM | Total growth inhibition (TGI) (SF-539): 3.1 µM | CC50 (SF-539): 5.7 µM | GI50 (KM12): 1660 nM | Total growth inhibition (TGI) (KM12): 3.31 µM | Total growth inhibition (TGI) (NCI-H460): 3.5 µM | GI50 (NCI-H460): 1740 nM | CC50 (NCI-H460): 7.01 µM | GI50 (OVCAR-8): 1350 nM | Total growth inhibition (TGI) (OVCAR-8): 2.84 µM | CC50 (OVCAR-8): 5.97 µM | GI50 (LOX IMVI): 1570 nM | Total growth inhibition (TGI) (LOX IMVI): 2.93 µM | CC50 (LOX IMVI): 5.47 µM | Total growth inhibition (TGI) (NCI-H226): 3.36 µM | GI50 (NCI-H226): 1720 nM | CC50 (NCI-H226): 6.55 µM | Total growth inhibition (TGI) (A549/ATCC): 7.29 µM | GI50 (A549/ATCC): 2390 nM | CC50 (A549/ATCC): 62.2 µM | GI50 (OVCAR-3): 1500 nM | Total growth inhibition (TGI) (OVCAR-3): 2.96 µM | CC50 (OVCAR-3): 5.84 µM | % DPPH radical scavenging activity [1]: 59.2% | Total growth inhibition (TGI) (HOP-62): 10.4 µM | GI50 (HOP-62): 2650 nM | CC50 (HOP-62): 86.3 µM | GI50 (MDA-MB-468): 1710 nM | Total growth inhibition (TGI) (MDA-MB-468): 3.25 µM | CC50 (MDA-MB-468): 6.16 µM | GI50 (RXF 393): 890 nM | Total growth inhibition (TGI) (RXF 393): 2.2 µM | CC50 (RXF 393): 4.98 µM | GI50 (HS 578T): 1860 nM | Total growth inhibition (TGI) (HS 578T): 4.88 µM | CC50 (HS 578T): > 100 µM | GI50 (SN12C): 1980 nM | Total growth inhibition (TGI) (SN12C): 5.94 µM | CC50 (SN12C): 65.1 µM | GI50 (SK-MEL-28): 1940 nM | Total growth inhibition (TGI) (SK-MEL-28): 3.69 µM | CC50 (SK-MEL-28): 7.01 µM | GI50 (NCI/ADR-RES): 1940 nM | Total growth inhibition (TGI) (NCI/ADR-RES): 4.41 µM | CC50 (NCI/ADR-RES): > 100 µM

C=C1CCC2C3(C)COC(c4cn(-c5ccccc5)nc4-c4cccc(Cl)c4)OC3CCC2(C)C1CC=C1C(=O)OCC1O (stereo not shown) [1d]
GI50 (HT29): 1490 nM | Total growth inhibition (TGI) (HT29): 3.13 µM | CC50 (HT29): 6.57 µM | GI50 (MALME-3M): 1470 nM | Total growth inhibition (TGI) (MALME-3M): 2.85 µM | GI50 (SK-MEL-2): 1570 nM | Total growth inhibition (TGI) (SK-MEL-2): 3.05 µM | GI50 (SR): 1290 nM | Total growth inhibition (TGI) (SR): 4.03 µM | CC50 (SR): > 100 µM | GI50 (MDA-MB-231): 1490 nM | Total growth inhibition (TGI) (MDA-MB-231): 2.99 µM | CC50 (MDA-MB-231): 5.97 µM | GI50 (M14): 1690 nM | Total growth inhibition (TGI) (M14): 3.88 µM | GI50 (U251): 1590 nM | Total growth inhibition (TGI) (U251): 3 µM | GI50 (CAKI-1): 1320 nM | Total growth inhibition (TGI) (CAKI-1): 2.66 µM | CC50 (CAKI-1): 5.39 µM | Total growth inhibition (TGI) (EKVX): 4.95 µM | GI50 (EKVX): 2210 nM | CC50 (EKVX): > 100 µM | GI50 (MCF7): 1480 nM | Total growth inhibition (TGI) (MCF7): 66.8 µM | CC50 (MCF7): > 100 µM | GI50 (SW-620): 1530 nM | Total growth inhibition (TGI) (SW-620): 3.4 µM | CC50 (SW-620): 7.55 µM | GI50 (A498): 2900 nM | Total growth inhibition (TGI) (A498): 11.4 µM | CC50 (A498): 38.1 µM | GI50 (SF-539): 1630 nM | Total growth inhibition (TGI) (SF-539): 3.02 µM | CC50 (SF-539): 5.57 µM | GI50 (KM12): 1670 nM | Total growth inhibition (TGI) (KM12): 3.32 µM | Total growth inhibition (TGI) (NCI-H460): 3.34 µM | GI50 (NCI-H460): 1680 nM | CC50 (NCI-H460): 6.66 µM | GI50 (OVCAR-8): 1530 nM | Total growth inhibition (TGI) (OVCAR-8): 3.44 µM | CC50 (OVCAR-8): > 100 µM | GI50 (LOX IMVI): 1610 nM | Total growth inhibition (TGI) (LOX IMVI): 2.97 µM | CC50 (LOX IMVI): 5.5 µM | Total growth inhibition (TGI) (NCI-H226): 3.37 µM | GI50 (NCI-H226): 1760 nM | CC50 (NCI-H226): 6.46 µM | Total growth inhibition (TGI) (A549/ATCC): 11.3 µM | GI50 (A549/ATCC): 2820 nM | CC50 (A549/ATCC): 69.1 µM | GI50 (OVCAR-3): 1600 nM | Total growth inhibition (TGI) (OVCAR-3): 3.09 µM | CC50 (OVCAR-3): 5.95 µM | % DPPH radical scavenging activity [1]: 59.32% | Total growth inhibition (TGI) (HOP-62): 4.29 µM | GI50 (HOP-62): 1780 nM | CC50 (HOP-62): > 100 µM | GI50 (MDA-MB-468): 1740 nM | Total growth inhibition (TGI) (MDA-MB-468): 3.31 µM | CC50 (MDA-MB-468): 6.3 µM | GI50 (RXF 393): 1050 nM | Total growth inhibition (TGI) (RXF 393): 2.31 µM | CC50 (RXF 393): 5.07 µM | GI50 (HS 578T): 1910 nM | Total growth inhibition (TGI) (HS 578T): 4.85 µM | CC50 (HS 578T): > 100 µM | GI50 (SN12C): 1650 nM | Total growth inhibition (TGI) (SN12C): 3.62 µM | CC50 (SN12C): 7.92 µM | GI50 (SK-MEL-28): 1800 nM | Total growth inhibition (TGI) (SK-MEL-28): 3.37 µM | CC50 (SK-MEL-28): 6.33 µM | GI50 (NCI/ADR-RES): 1880 nM | Total growth inhibition (TGI) (NCI/ADR-RES): 4.77 µM | CC50 (NCI/ADR-RES): > 100 µM
